The source of these data is patent US9296716B2, “Androgen receptor ligands” (THE PROVOST, FELLOWS, FOUNDATION SCHOLARS, & THE OTHER …, priority 2011, dated 2016).

One assay deals with T1, AR-LBD T877A mutant (Homo sapiens, UniProt P10275, T878A).
T1 construct: purchased Invitrogen PV4667
T1 sequence (P10275 669-900 T878A): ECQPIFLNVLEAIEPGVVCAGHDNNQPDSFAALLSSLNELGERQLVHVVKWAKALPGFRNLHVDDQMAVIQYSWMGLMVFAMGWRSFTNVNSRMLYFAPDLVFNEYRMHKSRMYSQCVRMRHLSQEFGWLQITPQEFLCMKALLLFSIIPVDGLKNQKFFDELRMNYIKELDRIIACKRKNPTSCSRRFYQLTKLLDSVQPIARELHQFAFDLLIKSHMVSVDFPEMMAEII
Put plainly: TR-FRET coactivator assay, AR T877A mutant. In kind it is biochemical. The conditions noted are these: D11-FxxLF peptide, DHT = EC80. On the technique in general: In TR-FRET formats the signal depends on donor and acceptor labels being close together.

In assay [1] the target is T2, Glucocorticoid Receptor (GR) LBD (Homo sapiens, UniProt P04150).
T2 construct: purchased Invitrogen PV4683
T2 sequence (P04150 524-758 limits assumed): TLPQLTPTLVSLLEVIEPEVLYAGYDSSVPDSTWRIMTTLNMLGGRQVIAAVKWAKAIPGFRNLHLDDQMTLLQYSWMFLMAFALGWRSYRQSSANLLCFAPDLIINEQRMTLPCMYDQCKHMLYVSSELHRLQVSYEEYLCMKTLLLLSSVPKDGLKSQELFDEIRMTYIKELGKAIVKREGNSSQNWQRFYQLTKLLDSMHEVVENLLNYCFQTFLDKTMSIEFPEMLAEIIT
Put plainly: TR-FRET SRC1-4 coactivator recruitment assay, GR LBD. In kind it is biochemical. The conditions noted are these: Dexamethasone = EC80. The procedure: Compound binding affinities for Progesterone Receptor (PR), Glucocorticoid Receptor (GR), Estrogen Receptor alpha and Estrogen Receptor beta were determined using TR-FRET (Table 2).
Dexamethasone bound receptor recruitment of the fluorescently labelled SCR1-4 coactivator was unimpaired at screening concentrations up to 100 μM for all the diarylhydrazides evaluated (FIG. 5).
Lanthascreen TR-FRET AR Coactivator Assay kit (Invitrogen, cat no. PV4381) was used to screen for potential coactivator disruptors.
TR FRET values were calculated at 10 flashes per well, using a delay time of 100 μs and integration time 200 μs as recommended by the Invitrogen assay guidelines. […] A serial dilution of compounds was firstly prepared in 100×DMSO (Sigma-Aldrich) starting from the maximum desired concentration to achieve a 12 point range concentration using 96-well polypropylene plates (Nalgene Nunc, Rochester, N.Y.). Each 100× solution was diluted to 2× concentration with TR-FRET co-regulator buffer A (Invitrogen proprietary buffer), yielding a final concentration of 1% DMSO in each well.
D11-FxxLF and Tb antibody were premixed in light protecting vials prior to use. A final concentration of DTT 5 mM was used in the assay buffer in order to prevent protein degradation. All plates (agonist and antagonist mode) were incubated between 2 and 4 hours at room temperature protected from light prior to TR-FRET measurement. […] Data was fitted using the sigmoidal dose response (variable slope) available from Graphpad Prism 5. Y=Bottom+(Top-Bottom)/(1+10^((Log IC50−X)*HillSlope))
The same procedure was used for AR T877A (Invitrogen cat no. PV4667), PR (Invitrogen cat no. PV4666), ER-α (Invitrogen cat no. PV4544), ER-β (Invitrogen cat no. PV4541) and GR (Invitrogen cat no. PV4683). The assay was adapted to exclude possible non-specific aggregation mechanism of inhibition by adding very low concentration of detergent Triton X-100 (0.001%) to the assay buffer following the Shoichet review guidelines [Shoichet BK (2006) Screening in a spirit haunted world. Drug Discov Today 11:607-615].

Assay [2] concerns PSA expression in LNCaP cells. Put plainly: PSA ELISA, secreted PSA in LNCaP cells. Format: cell-based. The procedure: (§1) To investigate compounds effect on PSA expression, a common biomarker for prostate cancer, we utilized a human PSA ELISA assay.
For cell viability (end point) assays LNCaP, PC-3 and PWR-1E cells were seeded at 2.5*10^4/ml density in 200 μl volume of a 96-well plate in triplicate and incubated for 24 hours prior testing. Test compounds were included at different concentrations to achieve a final concentration of 0.5% DMSO in each well. Effect of 0.5% DMSO on cell-viability was also evaluated. Cell viability was assessed after 24 hours of treatment using 10% Alamar Blue reagent (Invitrogen) for each well. Cell viability was monitored by the reduction of resazurin, a blue, cell-permeable and non-toxic compound, to resorufin, a red and highly fluorescent product. Viable cells continuously convert resazurin to resorufin, increasing the overall colour and fluorescence of the media surrounding cells. Fluorescence intensity can be quantitatively determined with a fluorescence microplate reader at excitation/emission 544 nm/590 nm (Spectramax Gemini). For hormone dependent cell proliferation assays in androgen deprived LNCaP cells, cells were seeded at 2*10^4 cells/ml in a 24-well plate in triplicate. Cells were plated in phenol red free RPMI Glutamax (Invitrogen) supplemented with 10% charcoal-stripped FBS to deplete endogenous steroids 48 hours prior the assay as described in previous reports. […] Cells were treated with different concentrations of test compounds with or without 0.1 nM DHT to achieve a final concentration of 0.1% DMSO in each well. A control for the vehicle was included to ensure no effect on viability could be detected. Media and treatments were replaced every second day, after washing the cells twice with 1×PBS. Supernatants were collected after five days for secreted PSA levels evaluation and cell proliferation was assessed for the same plate using Alamar Blue in order to exclude non-specific effects due to toxicity issues.
Secreted levels of prostate specific antigen were evaluated with a commercially available kit (Quantikine Human Kallikrein 3/PSA Immunoassay, R&D systems). The assay was performed following manufacturer's guidelines. In brief, 50 μl of standards and cell culture samples were added to pre-coated wells containing assay diluent RD1W (R&D systems) and incubated for two hours at room temperature. […] Wells were washed and treated with colored substrate (Tetramethylbenzidine) for an additional 30 minutes, after which 50 μl of stop solution (Sulphuric Acid 2N) was added per well and absorbance (450 nm with correction at 540 nm) was read with a plate reader within 30 minutes (Versamax).
(In an ELISA, binding on a coated surface is turned into a signal by an enzyme label.)

The subject of assay [3] is PSA expression in 22Rv1 cells. Put plainly: PSA ELISA, secreted PSA in 22Rv1 cells. In kind it is cell-based. The procedure:
as §1
(§2) We repeated the same experiment in 22Rv1 cell line.
Secreted levels of prostate specific antigen were evaluated with a commercially available kit (Quantikine Human Kallikrein 3/PSA Immunoassay, R&D systems). The assay was performed following manufacturer's guidelines. In brief, 50 μl of standards and cell culture samples were added to pre-coated wells containing assay diluent RD1W (R&D systems) and incubated for two hours at room temperature. Unbound material was washed several times and 200 μl of Horseradish Peroxidase (HRP) labeled PSA conjugate antibody was added to each well and further incubated for two hours at room temperature. Wells were washed and treated with colored substrate (Tetramethylbenzidine) for an additional 30 minutes, after which 50 μl of stop solution (Sulphuric Acid 2N) was added per well and absorbance (450 nm with correction at 540 nm) was read with a plate reader within 30 minutes (Versamax).

A further assay has as its system 22Rv1 cells. The experiment in a line: 22Rv1 cell proliferation assay. Format: cell-based. The procedure: Thus, inhibition on cell proliferation by the compounds could not be evaluated (FIG. 14)
as §2
For cell viability (end point) assays LNCaP, PC-3 and PWR-1E cells were seeded at 2.5*10^4/ml density in 200 μl volume of a 96-well plate in triplicate and incubated for 24 hours prior testing. Test compounds were included at different concentrations to achieve a final concentration of 0.5% DMSO in each well. Effect of 0.5% DMSO on cell-viability was also evaluated. Cell viability was assessed after 24 hours of treatment using 10% Alamar Blue reagent (Invitrogen) for each well. Cell viability was monitored by the reduction of resazurin, a blue, cell-permeable and non-toxic compound, to resorufin, a red and highly fluorescent product. Viable cells continuously convert resazurin to resorufin, increasing the overall colour and fluorescence of the media surrounding cells. Fluorescence intensity can be quantitatively determined with a fluorescence microplate reader at excitation/emission 544 nm/590 nm (Spectramax Gemini). […] A control for the vehicle was included to ensure no effect on viability could be detected. […] Supernatants were collected after five days for secreted PSA levels evaluation and cell proliferation was assessed for the same plate using Alamar Blue in order to exclude non-specific effects due to toxicity issues.

For orientation: IC50 means the midpoint of a concentration-inhibition curve. As for `COc1cc(/C=N/NC(=O)c2cc3c(ccc4ccccc43)o2)cc(OC)c1O` [MDG506], the half-inhibitory concentration (IC50) at AR-LBD T877A mutant is 33.2 ± 5.9 µM; in assay [1] (TR-FRET, ± SEM (n = 6), read-out: NR LBDs IC50 (μM) GR), over 100 µM. Further, in assay [1] (100 μM to 12.5 μM or single point 100 μM), the “effect on SRC1-4 recruitment by GR LBD” value is reported as “do not affect”. For the same compound, the “PSA expression in absence of androgens” value in assay [2] and in assay [3] (22Rv1) was “does not induce” each time. Further, the “CPA stimulated PSA secretion / expression” value in assay [2] (MDG506 at 10 or 20 μM) is on record as “significantly (P<0.001) reduces”. The “DHT stimulated PSA expression” value is reported as “dose dependent inhibition” in assay [2] (concentrations up to 20 μM) and “no effect could be seen” in assay [3] (22Rv1). Moreover, in assay [3] (22Rv1, MDG506 at different concentrations), the “CPA stimulated PSA expression” value was “reduced”. In addition, the “cell proliferation in absence of androgens” value with 22Rv1 cells is reported as “does not induce”.
